From patent publication US20040071747A1, “Cosmetics” (priority 2001, published 2004)

Test: Solubility in water or squalane by visual observation
Format: physicochemical
Set-up: key: ∘: Completely dissolved; x: Separated or precipitated without dissolution
Settings: 25° C.
Description: Solubilityies of 1% by weight of components (1) to (5), and those of 0.01% by weight of components (6) and (7) were examined by visual observation of the dissolving states of the components mixed at 25° C. with water or squalane.

Compound | Solubility in Squalane (1% by weight) | Solubility in Water (1% by weight) | Solubility in Squalane (0.01% by weight) | Solubility in Water (0.01% by weight)
CC1(C)[C@@H](O[C@H]2O[C@H](C(=O)[O-])[C@@H](O)[C@H](O)[C@H]2O[C@@H]2O[C@H](C(=O)[O-])[C@@H](O)[C@H](O)[C@H]2O)CC[C@]2(C)[C@H]3C(=O)C=C4[C@@H]5C[C@@](C)(C(=O)O)CC[C@]5(C)CC[C@@]4(C)[C@]3(C)CC[C@@H]12.[K+].[K+] [Dipotassium Glycyrrhizinate] | x | ∘ | – | –
CCN(Cc1cccc(S(=O)(=O)[O-])c1)c1ccc(C(=C2C=CC(=[N+](CC)Cc3cccc(S(=O)(=O)[O-])c3)C=C2)c2ccccc2S(=O)(=O)[O-])cc1.[Na+].[Na+] [Blue No.1] | – | – | x | ∘
Cc1ccc(Nc2ccc(O)c3c2C(=O)c2ccccc2C3=O)c(S(=O)(=O)[O-])c1.[Na+] [Purple No.401] | – | – | x | ∘
